pIC50: −log10 of the molar value.
target: HIV protease (Human immunodeficiency virus type 1 group M subtype B, UniProt P03366); assay: biochemical; details: protease expressed in Escherichia coli; peptide substrate Val-Ser-Gln-Asn-(betanapthyl)Ala-Pro-Ile-Val; 50 mM Na acetate, pH 5.5, 30° C., 1 hour; HPLC
Method: Assay for Inhibition of Microbial Expressed Viral Protease
Inhibition studies of the reaction of the protease expressed in Escherichia coli with a peptide substrate Val-Ser-Gln-Asn-(betanapthyl)Ala-Pro-Ile-Val, 0.5 mg/mL at the time the reaction is initiated! were in 50 mM Na acetate, pH 5.5, at 30° C. for 1 hour. Various concentrations of inhibitor in 1.0 ul DMSO were added to 25 ul of the peptide solution in water. The reaction is initiated by the addition of 15 ul of 0.33 nM protease (0.11 ng) in a solution of 0.133 M Na acetate pH 5.5 and 0.26% bovine serum albumin. The reaction was quenched with 160 ul of 5% phosphoric acid. Products of the reaction were separated by HPLC (VYDAC wide pore 5 cm C-18reverse phase, acetonitrile gradient, 0.1% phosphoric acid). The extent of inhibition of the reaction was determined from the peak heights of the products.

| pIC50 | SMILES |
| --- | --- |
| ~6.59 | CC(C)(C)NC(=O)[C@@H]1C[C@@H]2CCCC[C@@H]2CN1C[C@@H](O)[C@H](Cc1ccccc1)NC(=O)O[C@H]1CCOC1 [Compound A, cis-N-tert-butyl-decahydro-2 2(R)hydroxy-4-phenyl-3(S)-3(S)-tetrahydrofuranyloxycarbonylamino !-butyl!-(4aS, 8aS )-isoquinoline-3(S)carboxamide] |
| ~7.23 | CC(C)(C)NC(=O)[C@@H]1C[C@@H]2CCCC[C@@H]2CN1C[C@@H](O)[C@H](Cc1ccccc1)NC(=O)O[C@H]1CCS(=O)(=O)C1 [B, Cis-N-tert-butyl-decahydro-2 2(R)-hydroxy-4-phenyl-3(S)-3(S)-1,1-dioxotetr ahydrothien-3-yloxycarbonylamino !-butyl!-(4aS, 8aS )-isoquinoline-3(S)-carboxamide hydrate] |
| ~8.40 | CC(C)[C@@H]1[C@H](OC(=O)N[C@@H](Cc2ccccc2)[C@H](O)CN2C[C@H]3CCCC[C@H]3C[C@H]2C(=O)NC(C)(C)C)CCS1(=O)=O [Compound C, N-tert-butyl-decahydro-2 2(R)-hydroxy-4-phenyl-3(S)-1,1-dioxo-2(R)-methylethyl-3(R)-tetrahydrothienyloxycarbonylamino!butyl!-(4aS, 8aS) isoquinoline-3(S)-carboxamide] |

Source: patent publication US5502060A, “HIV protease inhibitors” (Merck & Co., Inc., priority 1994, dated 1996)
